Measured values published in US20250101003A1, “SPIROCYCLIC CAV2.3 ANTAGONISTS” (LARIO THERAPEUTICS LIMITED, priority 2021, published 2025).

Legend:
Cav2.3 [1] = molecular target: T1, Cav2.3 (Homo sapiens, UniProt Q15878); test: Whole-cell patch clamp assay (QPatch 16X); type: cell-based; details: whole-cell voltage clamp, HEK-293 T-Rex/Kir2.1/Cav2.3e-β4-α2δ1 cells, room temperature; read-out: Cav2.3 (pIC50) (converted)
Protocol: HEK-293 T-Rex/Kir2.1/Cav2.3e-β4-α2δ1 cells were seeded 96 hours before experiment and doxycycline at 0.2 μg/mL was added 24 hours before experiment. Just before the experiments cells were washed twice with D-PBS w/o Ca2+/Mg2+ and gently detached from the flask with Detachin. Cells were then re-suspended in the suspension solution (25 mL EX-CELL ACF CHO medium; 0.25 mL of 100× Penicillin/Streptomycin) and placed on the Automated Patch-clamp platform (QPatch 16X).
Standard whole-cell voltage clamp experiments were performed at room temperature using the single hole technology and the following intracellular and extracellular solutions (ICS and ECS, respectively) were used. ICS (mM): CsF 60, CsCl 50, NaCl 10, EGTA 20, BAPTA 5, HEPES 10, NaGTP 0.3, MgATP 5 (pH 7.2; ECS (mM): NMDG-Cl 120, BaCl2 20, HEPES 10, EGTA 7 (pH 7.4). After establishment of the seal and the passage in the whole-cell configuration, the Cav2.3 dependent current was evoked by challenging the cells with the following voltage protocol: the plasma membrane was held at −80 mV then a 50 ms-long depolarizing pulse at 0 mV, followed by a 50 ms-long hyperpolarizing pulse at −100 mV were applied and finally the plasma membrane was held back to −80 mV. This voltage protocol was applied every 10 seconds. Cav2.3 dependent current was first measured in control condition (vehicle, 0.1% DMSO), in the presence of increasing concentration of the compound under investigation and finally SNX 482 was added to fully block any R-type Cav2.3 dependent current.
For data collection, the Sophion proprietary software was used while the analysis was performed off-line using Excel and GraphPad Prism. The inward current (Area Under Curve) measured during each depolarizing pulse was normalized to cell membrane capacitance (Cm) to obtain the average inward current density in each condition (control, compound under investigation and SNX 482). Then, the inhibitory effect of the compound under investigation was evaluated as % of the remaining inward current, normalized to the internal control. […] All data were expressed as mean±S.E
Target sequence in this assay (Q15878 1-747 limits assumed): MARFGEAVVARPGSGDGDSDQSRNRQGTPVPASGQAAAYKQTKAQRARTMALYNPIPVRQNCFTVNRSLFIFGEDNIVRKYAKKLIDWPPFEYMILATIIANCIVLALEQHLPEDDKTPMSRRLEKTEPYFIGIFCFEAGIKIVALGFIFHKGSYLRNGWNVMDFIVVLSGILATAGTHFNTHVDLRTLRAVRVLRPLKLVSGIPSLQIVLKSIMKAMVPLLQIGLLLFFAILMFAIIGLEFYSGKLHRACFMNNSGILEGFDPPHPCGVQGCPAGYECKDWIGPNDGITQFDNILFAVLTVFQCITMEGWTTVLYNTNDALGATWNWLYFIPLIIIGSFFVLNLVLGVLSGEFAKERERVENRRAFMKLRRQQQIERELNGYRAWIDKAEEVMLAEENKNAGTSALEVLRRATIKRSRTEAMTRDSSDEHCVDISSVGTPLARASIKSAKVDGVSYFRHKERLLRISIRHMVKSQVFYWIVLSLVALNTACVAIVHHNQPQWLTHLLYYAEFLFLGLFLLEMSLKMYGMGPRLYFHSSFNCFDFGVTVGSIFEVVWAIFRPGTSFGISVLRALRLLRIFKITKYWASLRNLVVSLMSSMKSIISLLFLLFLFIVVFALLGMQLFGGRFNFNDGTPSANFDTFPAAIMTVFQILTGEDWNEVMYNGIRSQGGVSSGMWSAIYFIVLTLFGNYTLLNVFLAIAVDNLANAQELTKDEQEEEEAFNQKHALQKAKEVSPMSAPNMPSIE
Target sequence in this assay (Q15878 1126-1966 limits assumed): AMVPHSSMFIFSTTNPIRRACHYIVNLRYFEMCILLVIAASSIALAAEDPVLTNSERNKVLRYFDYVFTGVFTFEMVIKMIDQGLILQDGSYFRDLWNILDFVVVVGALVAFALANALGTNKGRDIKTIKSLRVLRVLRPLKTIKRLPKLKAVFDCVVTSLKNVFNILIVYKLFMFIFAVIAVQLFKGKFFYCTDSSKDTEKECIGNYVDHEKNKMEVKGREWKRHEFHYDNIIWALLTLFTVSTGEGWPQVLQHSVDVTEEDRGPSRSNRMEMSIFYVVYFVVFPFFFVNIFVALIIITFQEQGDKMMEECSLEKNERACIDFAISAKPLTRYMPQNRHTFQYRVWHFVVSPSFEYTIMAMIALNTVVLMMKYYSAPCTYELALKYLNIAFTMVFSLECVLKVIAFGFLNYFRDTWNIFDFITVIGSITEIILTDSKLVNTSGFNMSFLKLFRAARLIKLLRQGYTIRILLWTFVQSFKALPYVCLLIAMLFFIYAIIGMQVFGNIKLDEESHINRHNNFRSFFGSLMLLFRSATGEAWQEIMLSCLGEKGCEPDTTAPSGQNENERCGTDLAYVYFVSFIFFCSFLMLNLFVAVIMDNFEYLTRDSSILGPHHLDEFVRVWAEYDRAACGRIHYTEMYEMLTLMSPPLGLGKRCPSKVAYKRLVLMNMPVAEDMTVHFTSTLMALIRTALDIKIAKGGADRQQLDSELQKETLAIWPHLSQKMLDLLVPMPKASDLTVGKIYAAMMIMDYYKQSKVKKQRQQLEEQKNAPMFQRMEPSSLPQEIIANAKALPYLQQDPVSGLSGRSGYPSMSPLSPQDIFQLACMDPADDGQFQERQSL

Cav2.3 [2] = molecular target: T1, Cav2.3; test: Human Cav2.3 channel calcium-influx assay; type: cell-based; details: HEK-293 T-Rex/Kir2.1/Cav2.3e-β4-α2δ1 cells, Fluo8 fluorescence, without pluronic acid; read-out: Cav2.3 (pIC50) (converted)
In short: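 Doxycycline-induced HEK-293 T-Rex/Kir2.1 clone stably expressing Cav2.3e with β4-α2δ1, loaded with Fluo8 NW; compounds (8 points from 30 μM, half-log, 0.3% DMSO) preincubated 3 min at RT. Depolarized with 20 mM KCl/2 mM CaCl2; peak-minus-baseline fluorescence over 130 s normalized to neutral and inhibitor controls as % activity.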
Target sequence in this assay (Q15878 1-747 limits assumed): as the sequence (Q15878 1-747 limits assumed) above
Target sequence in this assay (Q15878 1126-2313 limits assumed): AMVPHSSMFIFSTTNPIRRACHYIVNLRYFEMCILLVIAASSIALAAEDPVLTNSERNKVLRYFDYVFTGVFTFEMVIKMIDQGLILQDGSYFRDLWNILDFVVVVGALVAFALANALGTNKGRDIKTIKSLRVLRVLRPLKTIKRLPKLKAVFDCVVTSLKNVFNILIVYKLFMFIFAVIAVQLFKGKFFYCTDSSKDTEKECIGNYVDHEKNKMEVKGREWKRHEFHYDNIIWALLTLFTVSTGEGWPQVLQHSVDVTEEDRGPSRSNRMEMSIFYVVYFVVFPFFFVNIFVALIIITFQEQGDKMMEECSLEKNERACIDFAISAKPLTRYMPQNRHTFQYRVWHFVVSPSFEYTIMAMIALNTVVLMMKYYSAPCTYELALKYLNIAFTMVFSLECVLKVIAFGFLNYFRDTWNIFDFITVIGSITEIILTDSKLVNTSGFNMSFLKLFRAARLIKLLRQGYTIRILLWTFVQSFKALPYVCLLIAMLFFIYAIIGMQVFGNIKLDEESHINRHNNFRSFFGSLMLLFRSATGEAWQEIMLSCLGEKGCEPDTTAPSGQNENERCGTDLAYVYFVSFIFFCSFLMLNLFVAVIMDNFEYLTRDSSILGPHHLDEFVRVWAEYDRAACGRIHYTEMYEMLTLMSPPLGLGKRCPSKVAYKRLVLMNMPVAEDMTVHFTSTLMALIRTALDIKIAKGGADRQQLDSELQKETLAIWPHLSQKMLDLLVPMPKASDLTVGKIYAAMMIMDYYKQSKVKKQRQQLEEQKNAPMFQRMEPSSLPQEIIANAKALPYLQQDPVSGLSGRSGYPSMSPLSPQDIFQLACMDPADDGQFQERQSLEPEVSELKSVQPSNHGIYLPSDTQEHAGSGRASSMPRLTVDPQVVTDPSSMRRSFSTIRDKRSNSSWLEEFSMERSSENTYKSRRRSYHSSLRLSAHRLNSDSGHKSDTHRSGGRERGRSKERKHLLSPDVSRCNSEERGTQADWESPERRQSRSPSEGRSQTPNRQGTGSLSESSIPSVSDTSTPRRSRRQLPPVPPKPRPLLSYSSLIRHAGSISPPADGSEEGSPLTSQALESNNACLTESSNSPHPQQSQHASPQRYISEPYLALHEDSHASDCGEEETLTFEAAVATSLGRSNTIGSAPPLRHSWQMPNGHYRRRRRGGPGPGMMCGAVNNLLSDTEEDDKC

CCOC(=O)N1CCc2ccc(S(=O)(=O)N3CC4(CCC4)CC3C)cc2C1 (single isomer, unassigned) [Example 23, Ethyl 7-((7-methyl-6-azaspiro[3.4]octan-6-yl)sulfonyl)-3,4-dihydroisoquinoline-2(1H)-carboxylate]
IC50 (Cav2.3 [1]): 832 nM
IC50 (Cav2.3 [2]): 501 nM

CC(C)C(=O)N1CCc2ccc(S(=O)(=O)N3CC4(CCC4)CC3C)cc2C1 (single isomer, unassigned) [Example 32, 2-methyl-1-(7-((7-methyl-6-azaspiro[3.4]octan-6-yl)sulfonyl)-3,4-dihydroisoquinolin-2(1H)-yl)propan-1-one]
IC50 (Cav2.3 [1]): 2340 nM
IC50 (Cav2.3 [2]): 1580 nM

CC1CC2(CCC2)CN1S(=O)(=O)c1ccc2c(c1)CN(C(=O)c1ccccc1)CC2 (single isomer, unassigned) [Example 27, (7-((7-Methyl-6-azaspiro[3.4]octan-6-yl)sulfonyl)-3,4-dihydroisoquinolin-2(1H)-yl)(phenyl)methanone]
IC50 (Cav2.3 [1]): 832 nM
IC50 (Cav2.3 [2]): 851 nM

CCC1CC2(CCC2)CN1S(=O)(=O)c1cccs1 (single isomer, unassigned) [Example 71, 7-ethyl-6-(thiophen-2-ylsulfonyl)-6-azaspiro[3.4]octane]
IC50 (Cav2.3 [1]): 1580 nM
IC50 (Cav2.3 [2]): 1170 nM

CC(C)C(=O)N1CCc2ccc(S(=O)(=O)N3CC4(CCC4)CC3C)cc2C1 (stereo not shown) [Example 30, 2-Methyl-1-(7-((7-methyl-6-azaspiro[3.4]octan-6-yl)sulfonyl)-3,4-dihydroisoquinolin-2(1H)-yl)propan-1-one]
IC50 (Cav2.3 [1]): 1700 nM
IC50 (Cav2.3 [2]): 912 nM

CC1CC2(CCC2)CN1S(=O)(=O)c1ccc2c(c1)CN(C(=O)c1ccccc1)CC2 (single isomer, unassigned) [Example 28, (7-((7-methyl-6-azaspiro[3.4]octan-6-yl)sulfonyl)-3,4-dihydroisoquinolin-2(1H)-yl)(phenyl)methanone]
IC50 (Cav2.3 [1]): 1700 nM
IC50 (Cav2.3 [2]): 1510 nM

CC(C)C(=O)N1CCc2ccc(S(=O)(=O)N3CC4(CCCC4)CC3C)cc2C1 (stereo not shown) [Example 100, 2-Methyl-1-(7-((3-methyl-2-azaspiro[4.4]nonan-2-yl)sulfonyl)-3,4-dihydroisoquinolin-2(1H)-yl)propan-1-one]
IC50 (Cav2.3 [1]): 1170 nM
IC50 (Cav2.3 [2]): 708 nM

CCOC(=O)N1CCc2ccc(S(=O)(=O)N3CC4(CCC4)CC3C)cc2C1 (stereo not shown) [Example 22, Ethyl 7-((7-methyl-6-azaspiro[3.4]octan-6-yl)sulfonyl)-3,4-dihydroisoquinoline-2(1H)-carboxylate]
IC50 (Cav2.3 [1]): 759 nM
IC50 (Cav2.3 [2]): 741 nM

CC1CC2(CCC2)CN1S(=O)(=O)c1ccc2c(c1)CN(C(=O)Cc1ccccc1)CC2 (stereo not shown) [Example 21, 1-(7-((7-Methyl-6-azaspiro[3.4]octan-6-yl)sulfonyl)-3,4-dihydroisoquinolin-2(1H)-yl)-2-phenylethan-1-one]
IC50 (Cav2.3 [1]): 933 nM
IC50 (Cav2.3 [2]): 955 nM

CC1CC2(CCC2)CN1S(=O)(=O)c1cccs1 (single isomer, unassigned) [Example 104, 7-methyl-6-(thiophen-2-ylsulfonyl)-6-azaspiro[3.4]octane]
IC50 (Cav2.3 [1]): 3720 nM
IC50 (Cav2.3 [2]): 1410 nM

CCC1CC2(CCC2)CN1S(=O)(=O)c1ccc2c(c1)CN(C(=O)C(F)(F)F)CC2 (stereo not shown) [Example 33, 1-(7-((7-Ethyl-6-azaspiro[3.4]octan-6-yl)sulfonyl)-3,4-dihydroisoquinolin-2(1H)-yl)-2,2,2-trifluoroethan-1-one]
IC50 (Cav2.3 [1]): 2820 nM
IC50 (Cav2.3 [2]): 1860 nM

CCC1CC2(CCC2)CN1S(=O)(=O)c1ccc2nc(C)sc2c1 (stereo not shown) [Example 1, 6-((7-Ethyl-6-azaspiro[3.4]octan-6-yl)sulfonyl)-2-methylbenzo[d]thiazole]
IC50 (Cav2.3 [1]): 2820 nM
IC50 (Cav2.3 [2]): 1410 nM

CC(C)C(=O)N1CCc2ccc(S(=O)(=O)N3CC4(CCC4)CC3C)cc2C1 (single isomer, unassigned) [Example 31, 2-Methyl-1-(7-((7-methyl-6-azaspiro[3.4]octan-6-yl)sulfonyl)-3,4-dihydroisoquinolin-2(1H)-yl)propan-1-one]
IC50 (Cav2.3 [1]): 4070 nM
IC50 (Cav2.3 [2]): 646 nM

CC1CC2(CCC2)CN1S(=O)(=O)c1ccc2c(c1)CN(C(=O)c1ccccc1)CC2 (stereo not shown) [Example 26, (7-((7-Methyl-6-azaspiro[3.4]octan-6-yl)sulfonyl)-3,4-dihydroisoquinolin-2(1H)-yl)(phenyl)methanone]
IC50 (Cav2.3 [1]): 525 nM
IC50 (Cav2.3 [2]): 1100 nM
